Experimental data as given in patent publication US5071749A, “Glycopetide antibiotic PA-45052-B” (Shionogi & Co., Ltd., priority 1987, dated 1991).
≈ marks a conversion by molar mass, not a printed value.

Tests used:
[1] = tested on: Staphylococcus aureus SR14; test: In vitro antibacterial activity, agar dilution method (MIC); type: cell-based; conditions: Staphylococcus aureus SR14, penicillin-resistant, 37° C., 18-20 hrs
[2] = tested on: Streptococcus faecalis SR 1004; test: as above; conditions: horse serum 0.5%, 37° C., 18-20 hrs
Cl. perfringens SP07 = type: cell-based, Clostridium perfringens; conditions: strain SP07, origin chicken; GAM agar, anaerobic, 37° C., 24 hours
[3] = tested on: Streptococcus agalactiae SR 1247; test: In vitro antibacterial activity, agar dilution method (MIC); conditions: horse serum 0.5%, 37° C., 18-20 hrs
[4] = tested on: Cl. perfringens NCTC-8798; type: cell-based, Clostridium perfringens; conditions: strain NCTC-8798, origin cow; GAM agar, anaerobic, 37° C., 24 hours
[5] = tested on: Streptococcus pneumoniae Type I; test: In vitro antibacterial activity, agar dilution method (MIC); conditions: horse serum 0.5%, 37° C., 18-20 hrs
[6] = tested on: Cl. perfringens FC 2208/75; type: cell-based, Clostridium perfringens; conditions: strain FC 2208/75, origin cow; GAM agar, anaerobic, 37° C., 24 hours
[7] = tested on: Cl. perfringens NCTC-10239; type: cell-based, Clostridium perfringens; conditions: strain NCTC-10239, origin cow; GAM agar, anaerobic, 37° C., 24 hours
Cl. perfringens 3C-01 = type: cell-based, Clostridium perfringens; conditions: strain 3C-01, origin chicken; GAM agar, anaerobic, 37° C., 24 hours
[8] = tested on: Staphylococcus aureus SR3131; test: In vitro antibacterial activity, agar dilution method (MIC); type: cell-based; conditions: Staphylococcus aureus SR3131, methicillin-resistant, 37° C., 18-20 hrs
mouse = test: LD50 on injection to mouse; type: in vivo
Source text: The growth-stimulating agent of this invention not only promotes growth of animals but also improves feed efficiency. Naturally, it is effective against infections by bacteria.

[9] = tested on: Staphylococcus aureus SR3626; test: In vitro antibacterial activity, agar dilution method (MIC); type: cell-based; conditions: Staphylococcus aureus SR3626, methicillin-resistant, 37° C., 18-20 hrs
[10] = tested on: Streptococcus pyogenes C-203; test: Antibacterial activity in vivo, mouse intraperitoneal infection (ED50); conditions: Slc-ICR female mice, i.p. inoculation of Streptococcus pyogenes C-203; s.c. dosing 1 and 5 hours later; survival on day 7
Description: (§1) Test method: The test organism is intraperitoneally inoculated to Slc-ICR female mice (8 mice per group), and PA-45052-A, -B or -C (two-fold dilution) is subcutaneously administered twice one hour later and 5 hours later.
(§2) Results: The 50% effective dose (ED50) is calculated from the survival rate on day 7.

[11] = tested on: Staphylococcus aureus SR 2030; test: as above; conditions: Slc-ICR female mice, i.p. inoculation of S. aureus SR 2030 (methicillin-resistant); s.c. dosing 1 and 5 hours later; survival on day 7
Description: as §1, §2

[12] = tested on: Streptococcus pneumoniae Type I; test: as above; conditions: Slc-ICR female mice, i.p. inoculation of Streptococcus pneumoniae Type I; s.c. dosing 1 and 5 hours later; survival on day 7
Description: as §1, §2

[13] = tested on: Staphylococcus aureus SR 3637; test: as above; conditions: Slc-ICR female mice, i.p. inoculation of S. aureus SR 3637 (methicillin-resistant); s.c. dosing 1 and 5 hours later; survival on day 7
Description: as §1, §2

Cl. perfringens 02441 = type: cell-based, Clostridium perfringens; conditions: strain 02441, origin chicken; GAM agar, anaerobic, 37° C., 24 hours
Cl. perfringens S-79 = type: cell-based, Clostridium perfringens; conditions: strain S-79, origin cow; GAM agar, anaerobic, 37° C., 24 hours
[14] = tested on: Staphylococcus aureus SR1626; test: In vitro antibacterial activity, agar dilution method (MIC); type: cell-based; conditions: Staphylococcus aureus SR1626, methicillin-resistant, 37° C., 18-20 hrs
[15] = tested on: Cl. perfringens NCTC-8239; type: cell-based, Clostridium perfringens; conditions: strain NCTC-8239, origin cow; GAM agar, anaerobic, 37° C., 24 hours
[16] = tested on: Staphylococcus aureus SMITH; test: In vitro antibacterial activity, agar dilution method (MIC); conditions: 37° C., 18-20 hrs
broiler chicks = test: Growth-stimulation test on chicks; type: in vivo, broiler chicks (arbor acre); conditions: 20 ppm in feed for 14 days
Source text: The growth-stimulating activities of PA-45052-A, PA-45052-B and PA-45052-E on broiler chicks (arbor acre, 8 days old) were investigated by using the known antibiotic thiopeptin as a referential agent. Chicks were fed with a feed mush (crude protein (CP) concentration 18%, each agent's concentration 20 ppm, not supplemented with other antibiotics) for 14 days in the battery brooders. The method of this experiment was as follows. After chicks were fed by floor pen with a feed (CP concentration 23%) from 0 to 8 days, they were divided into 5 groups (24 chicks a group, 12 male and 12 female) in such a way that the average weights of the groups are equal. To each group was administered PA-45052-A (20 ppm), PA-45052-B (20 ppm), PA-45052-E (20 ppm), thiopeptin (20 ppm) or only a feed (CP 18%) for 14 days. Each group was fed in cages (435×600×410 mm, each cage has 6-7 chicks) at 26°±2° C. for 14 days (up to 22 days old). Effectiveness was estimated from the increase of weight and the feed efficiency.

[17] = tested on: Staphylococcus aureus ATCC 25923; test: In vitro antibacterial activity, agar dilution method (MIC); conditions: 37° C., 18-20 hrs
[18] = tested on: Staphylococcus aureus PDA 209P JC-1; test: as above; conditions: 37° C., 18-20 hrs
[19] = tested on: Streptococcus pyogenes C-203; test: as above; conditions: horse serum 0.5%, 37° C., 18-20 hrs
Cl. perfringens 9C-02 = type: cell-based, Clostridium perfringens; conditions: strain 9C-02, origin chicken; GAM agar, anaerobic, 37° C., 24 hours
Cl. perfringens CW-1970 = type: cell-based, Clostridium perfringens; conditions: strain CW-1970, origin cow; GAM agar, anaerobic, 37° C., 24 hours
[20] = tested on: Streptococcus epidermidis ATCC 14490; test: In vitro antibacterial activity, agar dilution method (MIC); conditions: 37° C., 18-20 hrs
Cl. perfringens 6B-10 = type: cell-based, Clostridium perfringens; conditions: strain 6B-10, origin cow; GAM agar, anaerobic, 37° C., 24 hours

**Q.** With `CNC(CC(C)C)C(=O)NC1C(=O)NC(CC(N)=O)C(=O)NC2C(=O)NC3C(=O)NC(C(=O)NC(C(=O)O)c4cc(O)cc(O)c4-c4cc3ccc4O)C(OC3CC(C)(N)C(O)C(C)O3)c3ccc(c(Cl)c3)Oc3cc2cc(c3OC2OC(CO)C(O)C(O)C2O)Oc2ccc(cc2Cl)C1O` (centres unmarked) [PA-45052-B] as the molecule, how does the MIC [1] read?
**A.** Its MIC is 0.78 µg/mL (≈ 0.538 µM).

**Q.** What about the MIC [2] of the same molecule?
**A.** The MIC was 0.78 µg/mL (≈ 0.538 µM).

**Q.** And the MIC (Cl. perfringens SP07)?
**A.** Its MIC is 0.2 µg/mL (≈ 0.138 µM).

**Q.** And the MIC [3]?
**A.** Its MIC is 0.39 µg/mL (≈ 0.269 µM).

**Q.** And the MIC [4]?
**A.** The MIC was 0.39 µg/mL (≈ 0.269 µM).

**Q.** What about the MIC [5] of the same molecule?
**A.** The MIC was 0.2 µg/mL (≈ 0.138 µM).

**Q.** What about the MIC [6] of the same molecule?
**A.** Its MIC is 0.39 µg/mL (≈ 0.269 µM).

**Q.** What about the MIC [7] of the same molecule?
**A.** Its MIC is 0.2 µg/mL (≈ 0.138 µM).

**Q.** What about the MIC (Cl. perfringens 3C-01) of the same molecule?
**A.** Its MIC is 0.78 µg/mL (≈ 0.538 µM).

**Q.** What about the MIC [8] of the same molecule?
**A.** The MIC was 0.39 µg/mL (≈ 0.269 µM).

**Q.** And the LD50 (mouse)?
**A.** The LD50 was 1439 mg/kg.

**Q.** And the MIC [9]?
**A.** The MIC was 0.39 µg/mL (≈ 0.269 µM).

**Q.** And the “ED50 (50% effective dose)” value [10]?
**A.** Its value is 0.44 mg/kg/dose.

**Q.** And the “ED50 (50% effective dose)” value [11]?
**A.** The value was 1.45 mg/kg/dose.

**Q.** And the “ED50 (50% effective dose)” value [12]?
**A.** The value was 0.38 mg/kg/dose.

**Q.** And the “ED50 (50% effective dose)” value [13]?
**A.** Its value is 2.84 mg/kg/dose.

**Q.** And the MIC (Cl. perfringens 02441)?
**A.** Its MIC is 0.39 µg/mL (≈ 0.269 µM).

**Q.** And the MIC (Cl. perfringens S-79)?
**A.** Its MIC is 0.39 µg/mL (≈ 0.269 µM).

**Q.** And the MIC [14]?
**A.** Its MIC is 0.78 µg/mL (≈ 0.538 µM).

**Q.** And the MIC [15]?
**A.** The MIC was 0.2 µg/mL (≈ 0.138 µM).

**Q.** And the MIC [16]?
**A.** The MIC was 0.78 µg/mL (≈ 0.538 µM).

**Q.** And the “FCR: feed efficiency (B/A)” value (broiler chicks; broiler chicks)?
**A.** Its value is 1.60.

**Q.** And the “Increase of weight A (M = g) ± SD (average increase of weight)” value (broiler chicks; broiler chicks 8 to 22 days old, 24 chicks)?
**A.** Its value is 438.5 ± 51.6 g.

**Q.** What about the “FCR (%), index when control group is 100” value (broiler chicks; broiler chicks, control = 100) of the same molecule?
**A.** Its value is 93.6%.

**Q.** And the “Increase of weight (%), index when control group is 100” value (broiler chicks; broiler chicks, control = 100)?
**A.** Its value is 105.4%.

**Q.** And the MIC [17]?
**A.** Its MIC is 0.39 µg/mL (≈ 0.269 µM).

**Q.** And the MIC [18]?
**A.** The MIC was 0.39 µg/mL (≈ 0.269 µM).

**Q.** And the MIC [19]?
**A.** The MIC was 0.2 µg/mL (≈ 0.138 µM).

**Q.** And the MIC (Cl. perfringens 9C-02)?
**A.** The MIC was 0.39 µg/mL (≈ 0.269 µM).

**Q.** What about the MIC (Cl. perfringens CW-1970) of the same molecule?
**A.** The MIC was 0.39 µg/mL (≈ 0.269 µM).

**Q.** And the MIC [20]?
**A.** Its MIC is 1.56 µg/mL (≈ 1.08 µM).

**Q.** And the MIC (Cl. perfringens 6B-10)?
**A.** Its MIC is 0.39 µg/mL (≈ 0.269 µM).
